Experimental data published in patent EP4644391A1, “NOVEL PHENYLQUINOLONE COMPOUND HAVING ANTIBACTERIAL AND ANTICANCER FUNCTIONS, AND PREPARATION THEREOF” (Alphamol Science Ltd (Shanghai), priority 2022, dated 2024).
≈ marks a conversion by molar mass, not a printed value. Like-named read-outs stand apart in the source and are kept apart here.

Key:
Assay type in all cases: cell-based
E. coli ATCC 25922 = assay: In vitro antibacterial activity assay (MIC, broth dilution); details: Escherichia coli, ATCC25922
Excerpt: (§1) The method used to indicate the activity of the compounds in this example is to record the minimum inhibitory concentration (MIC) of the compounds against bacteria. The specific experimental method is as follows: • 1. The bacterial liquid cultured from a single colony was taken, and diluted into autoclaved CAMHB broth in a ratio of 1:1000, and mixed well. • 2. The prepared drug solution was filtered through a sterile 0.22µm syringe filter and placed in a sterile EP tube for later use. • 3. A 96-well plate was taken, and 20µL of drug solution (400µg/mL) was added to each well in the first column of the 96-well plate. Then, 180µL of diluted bacterial liquid was added and mixed well (Perform 3 replicate rows for each drug). The same process was performed for the hydrochloride drug. • 4. 100 µL of diluted bacterial liquid was added to each well in the remaining 11 columns of the 96-well plate. Drugs are the same as above. • 5. Serial dilution: 100µL of liquid was taken from the first column to the second column, mixed well, then 100µL of liquid was taken from the second column to the third column, mixed well, and so on, sequentially diluting down to the last column (column 12). After mixing column 12 well, 100µL of liquid thereof was discarded. The drug concentration in each well was decreased by two-fold serially (the concentration in the first well is 40µg/mL). • 6. Blank CAMHB broth without added bacteria liquid was added to 3 blank wells in the 96-well plate, as negative control. • 7. The diluted bacterial liquid was added to 3 blank wells in the 96-well plate, as positive control. • 8. Incubated at 37°C for 16 hours. • 9. Results reading: the minimum inhibitory concentration is the minimum drug concentration at which no bacterial growth is visible to the naked eye and without turbidity.

S. aureus ATCC 43300 = assay: as above; details: Staphylococcus aureus
Excerpt: as §1

P.aeruginosa ATCC 27853 = assay: as above; details: Pseudomonas aeruginosa, ATCC27853; Table 2; 37°C, 16 hours; read-out: G- bacteria MIC P.aeruginosa ATCC 27853
Excerpt: as §1

A. baumannii ATCC 17978 = assay: as above; details: Acinetobacter baumannii, ATCC17978; Table 2; 37°C, 16 hours; read-out: G- bacteria MIC A. baumannii ATCC 17978
Excerpt: as §1

E. feacium ATCC 700221 = assay: as above; details: read-out: G+ bacteria MIC E. feacium ATCC 700221
Excerpt: as §1

Hela = assay: In vitro anticancer activity test (MTT cell proliferation assay); details: Homo sapiens, average proliferation inhibition rate at the dosage of 40 µM
Protocol: The anticancer activity of the compounds was tested using an in vitro cancer cell tests. The specific test method is as follows: • 1. Cell recovery and culture method: the cryovial was taken out from the liquid nitrogen container firstly, soaked directly in 37°C warm water, and shaked from time to time to let it thaw as soon as possible. Then, the cryovial was transferred to a clean bench, and the lid was open. The cell suspension was taken into a centrifuge tube using a rubber-tipped dropper and more than 10 times the culture medium was added, mixed well, and centrifuged at 50g for 5 minutes. Then, the supernatant was discarded, complete culture medium containing 10% fetal bovine serum was added to resuspend the cells, the cells was counted, the cell density was adjusted, and then inoculated into a culture bottle. The culture bottle was placed in a cell culture incubator at 5% CO2 and 37°C. The complete culture medium was replaced once the next day and the culture was continued. • 2. Cell passaging method: adherent cells in the logarithmic growth phase were placed in a clean bench, the original culture medium was discarded, and washed three times with 1×PBS. An appropriate amount of 0.25% trypsin digestion solution was added to moisten the cells, and then the trypsin solution was aspirated. The cells were placed in a cell culture incubator at 5% CO2 and 37°C for digestion for a suitable time, and observed under a microscope. When 90% of the cells become round, the cells were moved immediately to the clean bench and complete culture medium was added to terminate digestion. Then, the cells were dislodged by pipetting up and down with a rubber-tipped dropper to single cells. The cells were counted, and the cell density was adjusted. The cells were inoculated into a suitable culture bottle or dish, added enough complete culture medium, and placed in a cell culture incubator at 5% CO2 and 37°C for static culture. For suspension cells in the logarithmic phase, the original culture medium was directly centrifuged at 50g for 5 minutes, the supernatant was discarded, and the cells were washed once with PBS and centrifuged. After discarding the supernatant, the complete culture medium was added and the cells were dispersed using a rubber-tipped dropper. The cells are counted, and the cell density was adjusted. The cells were inoculated into appropriate culture bottles or culture dishes, and sufficient complete culture medium was added, and the cells were cultured in a cell culture incubator at 5% CO2 and 37°C. • 3. Cell proliferation assay: cells in good state in logarithmic phase were taken and appropriate amount of the cells was inoculated into 96-well plates according to the cell passage treatment method, with each well containing 180 µL complete medium. After the cells growth was recovered and the number of cells in each well is 5000±500, a drug was added for treatment. After drug treatment during the experimental time, MTT solution with a final concentration of 0.5 mg/mL was added to each well, and placed in a cell culture incubator at 5% CO2 and 37°C to allow a fully reaction of MTT with cells. After 4 hours, the solution in the 96-well plate was discarded, 100 µL of DMSO was added, and shaked to dissolve the formazan precipitated at the bottom of the plate, and the absorbance value of samples was detected at a wavelength of 570 nm using a microplate reader. Calculation method of cell viability rate: Viability rate = A sample group÷A control group × 100% [formula] • 4. Cell photography step: cells in good state in logarithmic phase were taken and an appropriate amount of cells was inoculated into 96-well plates according to the cell passage treatment method, with each well containing 180 µL complete medium. After the cells growth was recovered and the number of cells in each well is 5000 ± 500, a drug was added for treatment. […]

[1] = Table 2, 37°C, 16 hours, read-out: G- bacteria MIC E. coli ATCC 25922
[2] = ATCC43300, Table 1, 37°C, 16 hours, read-out: G+ bacteria MIC S. aureus ATCC 43300
[3] = Table 3, read-out: E. coli ATCC 25922 MIC
[4] = ATCC43300, Table 3, read-out: S. aureus ATCC 43300 MIC

MIC (E. coli ATCC 25922; [1]) [mg/L]	MIC (S. aureus ATCC 43300; [2]) [mg/L]	MIC (P.aeruginosa ATCC 27853) [mg/L]	MIC (A. baumannii ATCC 17978) [mg/L]	MIC (E. feacium ATCC 700221; Table 1, 37°C, 16 hours) [mg/L]	MIC (E. coli ATCC 25922; [3]) [mg/L]	MIC (S. aureus ATCC 43300; [4]) [mg/L]	Compound	inhibition at 40 µM (Hela) [%]	also measured
≤ 0.1	≤ 0.1	0.1 to 1 (≈ 0.208 to 2.08 µM)	0.1 to 1 (≈ 0.208 to 2.08 µM)	1 to 8 (≈ 2.08 to 16.6 µM)			NS(=O)(=O)c1ccc(-c2c(F)cc3c(=O)c(C(=O)O)cn(C4CC4)c3c2Cl)cc1[N+](=O)[O-] [Example 4, 8-chloro-1-cyclopropyl-6-fluoro-7-(3-nitro-4-sulfamoyphenyl)-4-oxo-1,4-dihydroquinolin-3-carboxylic acid]		
≤ 0.1	≤ 0.1	0.1 to 1 (≈ 0.195 to 1.95 µM)	≤ 0.1	1 to 8 (≈ 1.95 to 15.6 µM)			N#Cc1cc(-c2cc3c(cc2F)c(=O)c(C(=O)O)cn3C2CC2)ccc1S(=O)(=O)NC1CCOCC1 [Example 5, 7-(3-cyano-4-(N-(tetrahydro-2H-pyran-4-yl)sulfamoyl)phenyl)-1-cyclopropyl-6-fluoro-4-oxo-1,4-dihydroquinolin-3-carboxylic acid]		
					≥ 1	≤ 1	CCCCCCCNS(=O)(=O)c1ccc(-c2cc3c(cc2F)c(=O)c(C(=O)O)cn3-c2ccc(F)cc2)cc1 [Example 12, 6-fluoro-1-(4-fluorophenyl)-7-(4-(N-heptylsulfamoyl)phenyl)-4-oxo-1,4-dihydroquinolin-3-carboxylic acid]	≥ 50	
≤ 0.1	≤ 0.1	0.1 to 1 (≈ 0.224 to 2.24 µM)	0.1 to 1 (≈ 0.224 to 2.24 µM)	1 to 8 (≈ 2.24 to 17.9 µM)			O=C(O)c1cn(C2CC2)c2cc(-c3ccc(S(=O)(=O)NCCO)cc3)c(F)cc2c1=O [Example 13, 1-cyclopropyl-6-fluoro-7-(4-(N-(2-hydroxyethyl)sulfamoyl)phenyl)-4-oxo-1,4-dihydroquinolin-3-carboxylic acid]		
	≤ 0.1			> 8			CCCNS(=O)(=O)c1ccc(-c2c(F)cc3c(=O)c(C(=O)O)cn(C4CC4)c3c2Cl)cn1 [Example 15, 8-chloro-1-cyclopropyl-6-fluoro-4-oxo-7-(6-(N-propylsulfamoyl)pyridin-3-yl)-1,4-dihydroquinolin-3-carboxylic acid]		
					≥ 1	≤ 1	CCCCCCCNS(=O)(=O)c1ccc(-c2cc3c(cc2F)c(=O)c(C(=O)O)cn3-c2ccc(F)cn2)cc1 [Example 19, 6-fluoro-1-(5-fluoropyridin-2-yl)-7-(4-(N-heptylsulfamoyl)phenyl)-4-oxo-1,4-dihydroquinolin-3-carboxylic acid]	≥ 50	
≤ 0.1		0.1 to 1 (≈ 0.209 to 2.09 µM)	≤ 0.1				O=C(O)c1cn(C2CC2)c2cc(-c3ccc(NC(=O)C(F)(F)F)c([N+](=O)[O-])c3)c(F)cc2c1=O [Example 35]		
					≥ 1	≤ 1	CC(C)(C)OC(=O)Nc1ccc(-c2cc3c(cc2F)c(=O)c(C(=O)O)cn3C2CC2)cc1[N+](=O)[O-] [Example 40]	≥ 50	
≤ 0.1		0.1 to 1 (≈ 0.295 to 2.95 µM)	≤ 0.1				Nc1cc(-c2cc3c(cc2F)c(=O)c(C(=O)O)cn3C2CC2)ccn1 [Example 50]		
					≥ 1	≤ 1	COc1cc(-c2cc3c(cc2F)c(=O)c(C(=O)O)cn3C2CC2)ccc1NC(=O)C(C)(C)C [Example 65]	≥ 50	
					≥ 1	≤ 1	CCCCCCCNS(=O)(=O)c1ccc(-c2cc3c(cc2F)c(=O)c(C(=O)O)cn3C2CC2)cc1 [Example 101]	≥ 50	
					≥ 1	≤ 1	CCCCCCCNS(=O)(=O)c1ccc(-c2cc3c(cc2F)c(=O)c(C(=O)O)cn3C2CC2)cc1C(F)(F)F [Example 132]	≥ 20	

Second part, the compound before the results:

Compound	MIC (E. coli ATCC 25922; [1]) [mg/L]	MIC (S. aureus ATCC 43300; [2]) [mg/L]	MIC (P.aeruginosa ATCC 27853) [mg/L]	MIC (A. baumannii ATCC 17978) [mg/L]	MIC (E. feacium ATCC 700221; Table 1, 37°C, 16 hours) [mg/L]	MIC (E. coli ATCC 25922; [3]) [mg/L]	MIC (S. aureus ATCC 43300; [4]) [mg/L]	inhibition at 40 µM (Hela) [%]	also measured
O=C(O)c1cn(C2CC2)c2cc(-c3ccc(S(=O)(=O)NCCCl)cc3)c(F)cc2c1=O [Example 10, 7-(4-(N-(2-chloroethyl)sulfamoyl)phenyl)-1-cyclopropyl-6-fluoro-4-oxo-1,4-dihydroquinolin-3-carboxylic acid]									MIC (S. aureus ATCC 43300; ATCC43300, 16 h, read-out: G+ bacteria MIC S. aureus ATCC 43300): ≤ 0.1 mg/L; MIC (E. feacium ATCC 700221; 16 h): > 8 mg/L
COc1c(-c2ccc(NC(=O)C(F)(F)F)c([N+](=O)[O-])c2)c(F)cc2c(=O)c(C(=O)O)cn(C3CC3)c12 [Example 30, 1-cyclopropyl-6-fluoro-8-methoxy-7-(3-nitro-4-(2,2,2-triifluoroacetamido)phenyl)-4-oxo-1,4-dihydroquinolin-3-carboxylic acid]	≤ 0.1		0.1 to 1 (≈ 0.196 to 1.96 µM)	0.1 to 1 (≈ 0.196 to 1.96 µM)					
O=C(O)c1cn(C2CC2)c2c([N+](=O)[O-])c(-c3ccc(NC(=O)C(F)(F)F)c([N+](=O)[O-])c3)c(F)cc2c1=O [Example 32]		≤ 0.1			1 to 8 (≈ 1.91 to 15.3 µM)				
Nc1cc(-c2c(F)cc3c(=O)c(C(=O)O)cn(C4CC4)c3c2F)ccc1C(=O)NCC(F)(F)F [Example 43]	≤ 0.1		0.1 to 1 (≈ 0.208 to 2.08 µM)	0.1 to 1 (≈ 0.208 to 2.08 µM)		≤ 1	≤ 1	≥ 20	
Cc1c(-c2ccc(C(=O)NCC(C)(C)C)c(N)c2)c(F)cc2c(=O)c(C(=O)O)cn(C3CC3)c12 [Example 49]		≤ 0.1			1 to 8 (≈ 2.15 to 17.2 µM)				
Nc1ccc(-c2c(F)cc3c(=O)c(C(=O)NO)cn(C4CC4)c3c2Cl)cc1[N+](=O)[O-] [Example 64]						≥ 1	≤ 1	≥ 20	
COc1c(-c2ccc(N)c([N+](=O)[O-])c2)c(F)cc2c(=O)c(C(=O)NO)cn(C3CC3)c12 [Example 138]						≥ 1	≤ 1	≥ 50	
COc1c(N2C[C@@H]3CCCN[C@@H]3C2)c(F)cc2c(=O)c(C(=O)O)cn(C3CC3)c12 [Moxifloxacin, reference compound]	≤ 0.1	≤ 0.1	1 to 8 (≈ 2.49 to 19.9 µM)	≤ 0.1	> 8				
